Measured values taken from patent US20210127673A1, “HERBICIDES” (SYNGENTA PARTICIPATIONS AG, priority 2016, published 2021).

How the values were obtained:
Type in all cases: in vivo
Settings in all cases: evaluated after 13 days
[1] = tested on: Alopecurus myosuroides (ALOMY); assay: Post-emergence herbicidal activity, Alopecurus myosuroides; parameters: key: 5=total damage to plant; 0=no damage to plant
Method in brief: (§1)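 Each value is a visual damage score from 0 (no effect) to 5 (plant killed), assessed 13 days after a foliar spray applied to 8-day-old plants. The compound was applied in acetone/water 50:50 with 0.5% Tween 20 under controlled glasshouse conditions.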

[2] = tested on: Setaria faberi (SETFA); assay: Post-emergence herbicidal activity, Setaria faberi; parameters: key: 5=total damage to plant; 0=no damage to plant
Method in brief: as §1

[3] = tested on: Triticum aestivium (TRZAW); assay: Post-emergence herbicidal activity, Triticum aestivium; parameters: key: 5=total damage to plant; 0=no damage to plant
Method in brief: as §1

[4] = tested on: Setaria faberi (SETFA); assay: Pre-emergence herbicidal activity, Setaria faberi; parameters: key: 5=total damage to plant; 0=no damage to plant
Method in brief: (§2)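 Visual injury score, 0–5, taken 13 days after a pre-emergence spray applied one day post-sowing; spray vehicle acetone/water (50:50) with 0.5% Tween 20.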

[5] = tested on: Echinochloa crus-galli (ECHCG); assay: Pre-emergence herbicidal activity, Echinochloa crus-galli
Method in brief: as §2

[6] = tested on: Avena fatua (AVEFA); assay: Pre-emergence herbicidal activity, Avena fatua; parameters: key: 5=total damage to plant; 0=no damage to plant
Method in brief: as §2

[7] = tested on: Lolium perenne (LOLPE); assay: Post-emergence herbicidal activity, Lolium perenne
Method in brief: as §1

[8] = tested on: Alopecurus myosuroides (ALOMY); assay: Pre-emergence herbicidal activity, Alopecurus myosuroides; parameters: key: 5=total damage to plant; 0=no damage to plant
Method in brief: as §2

[9] = tested on: Avena fatua (AVEFA); assay: Post-emergence herbicidal activity, Avena fatua
Method in brief: as §1

[10] = tested on: Triticum aestivium (TRZAW); assay: Pre-emergence herbicidal activity, Triticum aestivium; parameters: key: 5=total damage to plant; 0=no damage to plant
Method in brief: as §2

[11] = tested on: Echinochloa crus-galli (ECHCG); assay: Post-emergence herbicidal activity, Echinochloa crus-galli; parameters: key: 5=total damage to plant; 0=no damage to plant
Method in brief: as §1

[12] = tested on: Lolium perenne (LOLPE); assay: Pre-emergence herbicidal activity, Lolium perenne; parameters: key: 5=total damage to plant; 0=no damage to plant
Method in brief: as §2

CSCCCOC(=O)Nc1ccc(-c2cncc(F)c2)nc1C(F)(F)F [Compound B83]
Control of ALOMY after post-emergence application (score 0-5) ([1]; 1000 g/ha): 0 | Control of SETFA after post-emergence application (score 0-5) ([2]; 1000 g/ha): 5 | Control of TRAZW after post-emergence application (score 0-5) ([3]; 1000 g/ha): 1 | Control of SETFA after pre-emergence application (score 0-5) ([4]; 1000 g/ha): 5 | Control of ECHCG after pre-emergence application (score 0-5) ([5]; 1000 g/ha): 4 | Control of AVEFA after pre-emergence application (score 0-5) ([6]; 1000 g/ha): 2 | Control of LOLPE after post-emergence application (score 0-5) ([7]; 1000 g/ha): 3 | Control of ALOMY after pre-emergence application (score 0-5) ([8]; 1000 g/ha): 0 | Control of AVEFA after post-emergence application (score 0-5) ([9]; 1000 g/ha): 4 | Control of TRAZW after pre-emergence application (score 0-5) ([10]; 1000 g/ha): 0 | Control of ECHCG after post-emergence application (score 0-5) ([11]; 1000 g/ha): 5 | Control of LOLPE after pre-emergence application (score 0-5) ([12]; 1000 g/ha): 2

O=C(NCC1CC1)Nc1ccc(-c2cncc(F)c2)nc1C(F)(F)F [Compound B104]
Control of ALOMY after post-emergence application (score 0-5) ([1]; 250 g/ha): 1 | Control of SETFA after post-emergence application (score 0-5) ([2]; 250 g/ha): 5 | Control of TRAZW after post-emergence application (score 0-5) ([3]; 250 g/ha): 0 | Control of SETFA after pre-emergence application (score 0-5) ([4]; 250 g/ha): 5 | Control of ECHCG after pre-emergence application (score 0-5) ([5]; 250 g/ha): 2 | Control of AVEFA after pre-emergence application (score 0-5) ([6]; 250 g/ha): 0 | Control of LOLPE after post-emergence application (score 0-5) ([7]; 250 g/ha): 1 | Control of ALOMY after pre-emergence application (score 0-5) ([8]; 250 g/ha): 0 | Control of AVEFA after post-emergence application (score 0-5) ([9]; 250 g/ha): 3 | Control of TRAZW after pre-emergence application (score 0-5) ([10]; 250 g/ha): 0 | Control of ECHCG after post-emergence application (score 0-5) ([11]; 250 g/ha): 3 | Control of LOLPE after pre-emergence application (score 0-5) ([12]; 250 g/ha): 1

CC(C)COC(=O)Nc1ccc(-c2cncc(F)c2)nc1C(F)(F)F [Compound B43]
Control of ALOMY after post-emergence application (score 0-5) ([1]; 1000 g/ha): 1 | Control of SETFA after post-emergence application (score 0-5) ([2]; 1000 g/ha): 5 | Control of TRAZW after post-emergence application (score 0-5) ([3]; 1000 g/ha): 2 | Control of SETFA after pre-emergence application (score 0-5) ([4]; 1000 g/ha): 4 | Control of ECHCG after pre-emergence application (score 0-5) ([5]; 1000 g/ha): 3 | Control of AVEFA after pre-emergence application (score 0-5) ([6]; 1000 g/ha): 1 | Control of LOLPE after post-emergence application (score 0-5) ([7]; 1000 g/ha): 3 | Control of ALOMY after pre-emergence application (score 0-5) ([8]; 1000 g/ha): 1 | Control of AVEFA after post-emergence application (score 0-5) ([9]; 1000 g/ha): 4 | Control of TRAZW after pre-emergence application (score 0-5) ([10]; 1000 g/ha): 1 | Control of ECHCG after post-emergence application (score 0-5) ([11]; 1000 g/ha): 4 | Control of LOLPE after pre-emergence application (score 0-5) ([12]; 1000 g/ha): 1

O=C1OCCN1c1ccc(-c2cncc(F)c2)nc1C(F)(F)F [Compound B45, 3-[6-(5-fluoro-3-pyridyl)-2-(trifluoromethyl)-3-pyridyl]oxazolidin-2-one]
Control of ALOMY after post-emergence application (score 0-5) ([1]; 1000 g/ha): 1 | Control of SETFA after post-emergence application (score 0-5) ([2]; 1000 g/ha): 4 | Control of TRAZW after post-emergence application (score 0-5) ([3]; 1000 g/ha): 1 | Control of SETFA after pre-emergence application (score 0-5) ([4]; 1000 g/ha): 3 | Control of ECHCG after pre-emergence application (score 0-5) ([5]; 1000 g/ha): 3 | Control of AVEFA after pre-emergence application (score 0-5) ([6]; 1000 g/ha): 0 | Control of LOLPE after post-emergence application (score 0-5) ([7]; 1000 g/ha): 2 | Control of ALOMY after pre-emergence application (score 0-5) ([8]; 1000 g/ha): 0 | Control of AVEFA after post-emergence application (score 0-5) ([9]; 1000 g/ha): 3 | Control of TRAZW after pre-emergence application (score 0-5) ([10]; 1000 g/ha): 0 | Control of ECHCG after post-emergence application (score 0-5) ([11]; 1000 g/ha): 4 | Control of LOLPE after pre-emergence application (score 0-5) ([12]; 1000 g/ha): 0

CCCCOC(=O)Nc1ccc(-c2cncc(F)c2)nc1C(F)(F)F [Compound B58]
Control of ALOMY after post-emergence application (score 0-5) ([1]; 1000 g/ha): 0 | Control of SETFA after post-emergence application (score 0-5) ([2]; 1000 g/ha): 5 | Control of TRAZW after post-emergence application (score 0-5) ([3]; 1000 g/ha): 0 | Control of SETFA after pre-emergence application (score 0-5) ([4]; 1000 g/ha): 2 | Control of ECHCG after pre-emergence application (score 0-5) ([5]; 1000 g/ha): 2 | Control of AVEFA after pre-emergence application (score 0-5) ([6]; 1000 g/ha): 1 | Control of LOLPE after post-emergence application (score 0-5) ([7]; 1000 g/ha): 2 | Control of ALOMY after pre-emergence application (score 0-5) ([8]; 1000 g/ha): 0 | Control of AVEFA after post-emergence application (score 0-5) ([9]; 1000 g/ha): 2 | Control of TRAZW after pre-emergence application (score 0-5) ([10]; 1000 g/ha): 0 | Control of ECHCG after post-emergence application (score 0-5) ([11]; 1000 g/ha): 3 | Control of LOLPE after pre-emergence application (score 0-5) ([12]; 1000 g/ha): 1
